Measured values published in US10869858B2, “Therapeutic agent for amyotrophic disorders” (TOHOKU UNIVERSITY, priority 2015, dated 2020).

How the values were obtained:
[1] = test system: ALS patient-derived fibroblasts; experiment: Inhibitory effect on cell death of ALS patient-derived fibroblasts induced by oxidative stress (BSO 100 μmol/L), Method 1, Cell Counting Kit-8; format: cell-based; details: 100 μmol/L BSO; compound at 10 and 30 μmol/L; two days with compound; FIG. 1
Description: (§1) ALS patient-derived fibroblasts can be used to confirm the inhibitory effect of the compound of the present invention on cell death induced by treating the ALS patient-derived fibroblasts with the glutathione synthesis inhibitor, L-buthionine(S, R)sulfoximine (BSO).
6.4×10^3 Cells per well of ALS patient-derived fibroblasts were seeded in a 96-well cell culture plate using a DMEM medium containing 1% FBS. One day after cell seeding, BSO was mixed in the culture medium so that the concentration thereof was 100 μmol/L. After culturing in the presence of BSO for one day, the compound of Example 1 was mixed in the culture medium so that the concentration thereof is 1, 3, 10 or 30 μmol/L. After culturing in the presence of the compound for another two days, the number of living cells in each well was counted by using Cell Counting Kit-8 (manufactured by Dojindo Laboratories) to calculate cell viability. Here, wells to which both BSO and the compound were not added but distilled water and DMSO that were solvents for BSO and the compound, respectively were added were used as a control of the oxidative stress loading; wells to which both BSO and the compound were added were used as a control for the effect of the test compound.

[2] = test system: ALS patient-derived fibroblasts; experiment: Cell viability of ALS patient-derived fibroblasts treated with BSO 500 μmol/L, Method 2, Cell Counting Kit-8; format: cell-based; details: 500 μmol/L BSO; compound at 0.1, 0.3, 1, 3 and 10 μmol/L; three days with compound; FIG. 2
Description: as §1
(§2) 3.0×10^3 Cells per well of ALS patient-derived fibroblasts were seeded in a 96-well cell culture plate using a DMEM (low glucose) medium containing 1% FBS. One day after cell seeding, BSO was mixed in the culture medium so that the concentration thereof is 500 μmol/L. After culturing in the presence of BSO for one day, the compound of Example 1 was mixed in the culture medium so that the concentration thereof is 0.1, 0.3, 1, 3 or 10 μmol/L. After culturing in the presence of the compound for another three days, the number of living cells in each well was counted by using Cell Counting Kit-8 (manufactured by Dojindo Laboratories) to calculate cell viability. In addition, the degree of cell damage was measured by using LDH Cytotoxicity Detection Kit (manufactured by Takara Bio Inc.). Here, wells to which both BSO and the compound were not added but distilled water and DMSO that were solvents for BSO and the compound, respectively were added were used as a control of the oxidative stress loading; wells to which both BSO and the compound were added were used as a control for the effect of the test compound.

[3] = test system: ALS patient-derived fibroblasts; experiment: Degree of cell damage of ALS patient-derived fibroblasts treated with BSO 500 μmol/L, Method 2, LDH Cytotoxicity Detection Kit; format: cell-based; details: 500 μmol/L BSO; compound at 0.1, 0.3, 1, 3 and 10 μmol/L; three days with compound; FIG. 2
Description: as §1, §2

wobbler mice = experiment: Rotarod test in ALS animal models (wobbler mice); format: in vivo; details: 150 mg/kg orally once a day, 16 days after administration start, 10 rpm, n=14; control group 43%; P=0.018
Description: To 4-week-old wobbler mice, the compound of Example 1 (150 mg/kg) or a solvent, a 0.5% aqueous solution of methyl cellulose as a control was orally administered at a rate of 10 mL/kg once a day. Sixteen days after administration start date, the animals were placed on a mouse rotarod (manufactured by Muromachi Kikai Co., Ltd.) set at a rotation speed of 10 rpm and the time to fall was measured (rotarod test). The rotarod walking time was measured three times, and the upper limit of one measurement time was 300 seconds.

O=C(CC(C(=O)O)c1c[nH]c2ccccc12)c1ccc(F)cc1F (stereo not shown) [Example 1, 4-(2,4-difluorophenyl)-2-(1H-indol-3-yl)-4-oxobutanoic acid]
inhibition of cell death induced by BSO (cell viability) [1]: statistically significantly inhibited cell death | prevention of low cell viability induced by BSO [2]: statistically significantly prevented the low cell viability | prevention of cytotoxicity (degree of cell damage, LDH) induced by BSO [3]: statistically significantly prevented | occurrence ratio of animals whose rotarod walking time exceeded 300 seconds (wobbler mice): 86%
